Test results taken from PubChem BioAssay AID1963834 (Molecular Pharmacology Branch, DTP, NCI, 2024).

Test system: 873145-292-R-J1-PDC complex spheroid viability
Assay: Anticancer human tumor 873145-292-R-J1-PDC patient-derived renal clear cell carcinoma cell line growth inhibition [POLQ]
Details: for IC50: curve of first compound; for viability, T/C: stronger effect = lower value
Outline: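 PDC + HUVEC + MSC complex spheroids; POLQ inhibitors ± partner drugs; top conc. at/near clinical Cmax, else 10 microM (SN-38 1 microM), half-log dilutions; 37 degrees C, 5% CO2.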

[1] = second compound 0.0316 µM, first compound 0.0316 µM
[2] = second compound 0.0316 µM, first compound 0.1 µM
[3] = second compound 0.0316 µM, first compound 0.316 µM
[4] = second compound 0.0316 µM, first compound 1 µM
[5] = second compound 0.0316 µM, first compound 3.16 µM
[6] = second compound 0.0316 µM, first compound 10 µM
[7] = second compound 0.1 µM, first compound 0.0316 µM
[8] = second compound 0.1 µM, first compound 0.1 µM
[9] = second compound 0.1 µM, first compound 0.316 µM
[10] = second compound 0.1 µM, first compound 1 µM
[11] = second compound 0.1 µM, first compound 3.16 µM
[12] = second compound 0.1 µM, first compound 10 µM
[13] = second compound 0.316 µM, first compound 0.0316 µM
[14] = second compound 0.316 µM, first compound 0.1 µM
[15] = second compound 0.316 µM, first compound 0.316 µM
[16] = second compound 0.316 µM, first compound 1 µM
[17] = second compound 0.316 µM, first compound 3.16 µM
[18] = second compound 0.316 µM, first compound 10 µM
[19] = second compound 1 µM, first compound 0.0316 µM
[20] = second compound 1 µM, first compound 0.1 µM
[21] = second compound 1 µM, first compound 0.316 µM
[22] = second compound 1 µM, first compound 1 µM
[23] = second compound 1 µM, first compound 3.16 µM
[24] = second compound 1 µM, first compound 10 µM
[25] = second compound 3.16 µM, first compound 0.0316 µM
[26] = second compound 3.16 µM, first compound 0.1 µM
[27] = second compound 3.16 µM, first compound 0.316 µM
[28] = second compound 3.16 µM, first compound 1 µM
[29] = second compound 3.16 µM, first compound 3.16 µM
[30] = second compound 3.16 µM, first compound 10 µM
[31] = second compound 10 µM, first compound 0.0316 µM
[32] = second compound 10 µM, first compound 0.1 µM
[33] = second compound 10 µM, first compound 0.316 µM
[34] = second compound 10 µM, first compound 1 µM
[35] = second compound 10 µM, first compound 3.16 µM
[36] = second compound 10 µM, first compound 10 µM
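Also: spheroids exposed to compounds for 7 days before viability readout.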
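For viability, T/C in this document: luminescence signal used as surrogate for viable cell content; 100% = DMSO vehicle control viability.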

Question: Which results are given for `C=CC(=O)N1CCN(c2nc(=O)n(-c3c(C)ccnc3C(C)C)c3nc(-c4c(O)cccc4F)c(F)cc23)C(C)C1` (stereo unspecified) + Cc1cccc(N(C)C(=O)C2C(O)CCN2c2nc(C)cc(C(F)(F)F)c2C#N)c1?
Answer: IC50 (second compound 0.0316 µM): > 10 µM; IC50 (second compound 0.1 µM): > 10 µM; IC50 (second compound 0.316 µM): > 10 µM; IC50 (second compound 1 µM): > 10 µM; IC50 (second compound 3.16 µM): > 10 µM; IC50 (second compound 10 µM): > 10 µM; viability, T/C [1]: 103%; viability, T/C [2]: 108%; viability, T/C [3]: 107%; viability, T/C [4]: 120%; viability, T/C [5]: 141%; viability, T/C [6]: 138%; viability, T/C [7]: 104%; viability, T/C [8]: 110%; viability, T/C [9]: 115%; viability, T/C [10]: 133%; viability, T/C [11]: 128%; viability, T/C [12]: 126%; viability, T/C [13]: 108%; viability, T/C [14]: 111%; viability, T/C [15]: 119%; viability, T/C [16]: 123%; viability, T/C [17]: 143%; viability, T/C [18]: 125%; viability, T/C [19]: 114%; viability, T/C [20]: 100%; viability, T/C [21]: 111%; viability, T/C [22]: 123%; viability, T/C [23]: 144%; viability, T/C [24]: 117%; viability, T/C [25]: 105%; viability, T/C [26]: 110%; viability, T/C [27]: 106%; viability, T/C [28]: 111%; viability, T/C [29]: 136%; viability, T/C [30]: 124%; viability, T/C [31]: 110%; viability, T/C [32]: 101%; viability, T/C [33]: 103%; viability, T/C [34]: 111%; viability, T/C [35]: 120%; viability, T/C [36]: 128%

Question: How did the IC50 (second compound 0.0316 µM) turn out when `CC(C)n1c(=O)n(C)c2cnc3cc(F)c(-c4ccc(OCCCN5CCCCC5)nc4)cc3c21` + Cc1cccc(N(C)C(=O)C2C(O)CCN2c2nc(C)cc(C(F)(F)F)c2C#N)c1 was run?
Answer: > 10 µM

Question: And the IC50 (second compound 0.1 µM)?
Answer: > 10 µM

Question: What about the IC50 (second compound 0.316 µM) of the same compound?
Answer: > 10 µM

Question: What about the IC50 (second compound 1 µM) of the same compound?
Answer: > 10 µM

Question: What about the IC50 (second compound 3.16 µM) of the same compound?
Answer: > 10 µM

Question: What about the IC50 (second compound 10 µM) of the same compound?
Answer: > 10 µM

Question: What about the viability, T/C [1] of the same compound?
Answer: 84.6%

Question: And the viability, T/C [2]?
Answer: 102%

Question: What about the viability, T/C [3] of the same compound?
Answer: 96.9%

Question: And the viability, T/C [4]?
Answer: 100%

Question: And the viability, T/C [5]?
Answer: 89.2%

Question: What about the viability, T/C [6] of the same compound?
Answer: 78.1%

Question: And the viability, T/C [7]?
Answer: 94.7%

Question: And the viability, T/C [8]?
Answer: 103%

Question: And the viability, T/C [9]?
Answer: 100%

Question: What about the viability, T/C [10] of the same compound?
Answer: 90.4%

Question: What about the viability, T/C [11] of the same compound?
Answer: 85.9%

Question: What about the viability, T/C [12] of the same compound?
Answer: 76.4%

Question: And the viability, T/C [13]?
Answer: 105%

Question: What about the viability, T/C [14] of the same compound?
Answer: 99%

Question: And the viability, T/C [15]?
Answer: 79.7%

Question: And the viability, T/C [16]?
Answer: 99.8%

Question: And the viability, T/C [17]?
Answer: 98.8%

Question: And the viability, T/C [18]?
Answer: 73.3%

Question: What about the viability, T/C [19] of the same compound?
Answer: 106%

Question: And the viability, T/C [20]?
Answer: 106%

Question: What about the viability, T/C [21] of the same compound?
Answer: 102%

Question: What about the viability, T/C [22] of the same compound?
Answer: 91.8%

Question: And the viability, T/C [23]?
Answer: 89.2%

Question: And the viability, T/C [24]?
Answer: 72.4%

Question: And the viability, T/C [25]?
Answer: 91%

Question: What about the viability, T/C [26] of the same compound?
Answer: 91.8%

Question: What about the viability, T/C [27] of the same compound?
Answer: 114%

Question: What about the viability, T/C [28] of the same compound?
Answer: 101%

Question: What about the viability, T/C [29] of the same compound?
Answer: 107%

Question: And the viability, T/C [30]?
Answer: 69.4%

Question: And the viability, T/C [31]?
Answer: 88.8%

Question: And the viability, T/C [32]?
Answer: 98.6%

Question: And the viability, T/C [33]?
Answer: 104%

Question: What about the viability, T/C [34] of the same compound?
Answer: 90.2%

Question: What about the viability, T/C [35] of the same compound?
Answer: 87.8%

Question: And the viability, T/C [36]?
Answer: 66.4%

Question: `CC1COCCN1c1cc(-c2ccnn2C)c2ccnc(-c3ccn[nH]3)c2n1` (stereo unspecified) + Cc1cccc(N(C)C(=O)C2C(O)CCN2c2nc(C)cc(C(F)(F)F)c2C#N)c1 was tested. Which IC50 (second compound 0.0316 µM) did it give?
Answer: 1.08 µM

Question: And the IC50 (second compound 0.1 µM)?
Answer: 1.6 µM

Question: And the IC50 (second compound 0.316 µM)?
Answer: 1.54 µM

Question: What about the IC50 (second compound 1 µM) of the same compound?
Answer: 1.53 µM

Question: And the IC50 (second compound 3.16 µM)?
Answer: 0.987 µM

Question: What about the IC50 (second compound 10 µM) of the same compound?
Answer: 0.895 µM

Question: And the viability, T/C [1]?
Answer: 90.6%

Question: What about the viability, T/C [2] of the same compound?
Answer: 79.1%

Question: And the viability, T/C [3]?
Answer: 68.1%

Question: What about the viability, T/C [4] of the same compound?
Answer: 46.1%

Question: And the viability, T/C [5]?
Answer: 48.6%

Question: And the viability, T/C [6]?
Answer: 43.1%

Question: What about the viability, T/C [7] of the same compound?
Answer: 99.3%

Question: And the viability, T/C [8]?
Answer: 87.7%

Question: And the viability, T/C [9]?
Answer: 74.3%

Question: And the viability, T/C [10]?
Answer: 54.5%

Question: And the viability, T/C [11]?
Answer: 39.9%

Question: What about the viability, T/C [12] of the same compound?
Answer: 45.4%

Question: What about the viability, T/C [13] of the same compound?
Answer: 95.1%

Question: What about the viability, T/C [14] of the same compound?
Answer: 90.6%

Question: And the viability, T/C [15]?
Answer: 69%

Question: What about the viability, T/C [16] of the same compound?
Answer: 53.3%

Question: And the viability, T/C [17]?
Answer: 47%

Question: What about the viability, T/C [18] of the same compound?
Answer: 36.1%

Question: What about the viability, T/C [19] of the same compound?
Answer: 92.3%

Question: What about the viability, T/C [20] of the same compound?
Answer: 80.5%

Question: And the viability, T/C [21]?
Answer: 67.7%

Question: What about the viability, T/C [22] of the same compound?
Answer: 50.4%

Question: What about the viability, T/C [23] of the same compound?
Answer: 46.6%

Question: And the viability, T/C [24]?
Answer: 44.4%

Question: And the viability, T/C [25]?
Answer: 101%

Question: What about the viability, T/C [26] of the same compound?
Answer: 88%

Question: And the viability, T/C [27]?
Answer: 71.4%

Question: And the viability, T/C [28]?
Answer: 47%

Question: What about the viability, T/C [29] of the same compound?
Answer: 44.1%

Question: What about the viability, T/C [30] of the same compound?
Answer: 40.5%

Question: What about the viability, T/C [31] of the same compound?
Answer: 91.6%

Question: What about the viability, T/C [32] of the same compound?
Answer: 82.9%

Question: What about the viability, T/C [33] of the same compound?
Answer: 69%

Question: And the viability, T/C [34]?
Answer: 46.5%

Question: What about the viability, T/C [35] of the same compound?
Answer: 42%

Question: And the viability, T/C [36]?
Answer: 40.2%
